The text below walks through data of patent publication US20080118918A1, “Compositions and Methods For Determining and Predicting Treatment Responses For Depression and Anxiety” (THE REGENTS of the University of California, priority 2004, published 2008).

Molecules are shown by their SMILES.

Experiment [1] concerns depressed Mexican-Americans. The experiment in a line: prospective randomized, placebo lead-in, double-blind treatment of fluoxetine or desipramine for eight weeks; HAM-A and HAM-D changes stratified by CRHR1 GAG haplotype. Type of experiment: in vivo, human. The following applies: fluoxetine 10 mg-40 mg/day vs desipramine 50 mg-200 mg/day, 8 weeks.
Description: The primary outcome measures of the association analysis were the changes in the Hamilton rating scales for anxiety (HAM-A) and depression (HAM-D).
All patients were followed weekly and assessed for changes in the Hamilton rating scales for anxiety (HAM-A) and depression (HAM-D). Inclusion criteria in the study included a HAM-D of 18 or higher. Patients were classified into a high anxiety (HA) group if their HAM-A score was 18 or higher and in a low anxiety (LA) group if their HAM-A score was less than 18.
The study population consisted of 233 depressed subjects enrolled in an ongoing pharmacogenetic study of antidepressant treatment response to desipramine or fluoxetine. Data from the first 80 subjects who completed the protocol and for whom we had available genetic data are reported herein. […] All patients are Mexican-American men and women ages 21-68, with a current episode of major depression as diagnosed by the DSM-IV. In this study, all Mexican-American subjects had at least three grandparents born in Mexico. […]
Eighty subjects were divided into a low anxiety group (LA) with HAM-A score less than 18 at screening and a high anxiety group (HA), with HAM-A scores that were 18 or higher at screening. […] Demographics of the LA group and HA group were assessed for homogeneity using χ^2 or t-tests, as appropriate.
In another experiment the test system is CNS CRH gene expression. The note with it: in vivo; cited from earlier work.

Consider `CNCCC(Oc1ccc(C(F)(F)F)cc1)c1ccccc1` (stereo not shown) [fluoxetine], for which the “antidepressant effectiveness, comparison of the two drugs” value in experiment [1] is on record as “no differences between the two drugs in terms of antidepressant effectiveness have been observed”. In addition, the “effects on downregulating CNS CRH gene expression” value in the experiment on CNS CRH gene expression was “equal effects on downregulating CNS CRH gene expression”.
Consider `CNCCCN1c2ccccc2CCc2ccccc21` [desipramine], for which the “antidepressant effectiveness, comparison of the two drugs” value in experiment [1] is on record as “no differences between the two drugs in terms of antidepressant effectiveness have been observed”. The “effects on downregulating CNS CRH gene expression” value in the experiment with CNS CRH gene expression is recorded as “equal effects on downregulating CNS CRH gene expression”.
